# In patent US8846752B2, “Isoflavone fatty acid ester derivatives, preparation method and pharmaceutical uses thereof” (China Pharmaceutical University, priority 2010, dated 2014):
# Experiments:
# 3T3-L1 cells [1] = test: Cell proliferation determination with MTT method; type: cell-based; conditions: 25, 50, 100 and 200 μmol/L, 2 d; P<0.05 vs blank group; FIG. 1
# Method: 4.1.1 Cell Proliferation Determination Experiment with MTT Method
# Inoculate 3T3-L1 cells in 96-hole cell culture plate. After 2 d of conventional culture, replace with DMEM culture solutions with different concentrations (25, 50, 100 and 200 μmol/L) of Series I compounds. The control group is the culture solution containing 0.1% (V/V) ethanol (96%). 3 complex holes are set for each concentration in each group, processing 2 d. Discard the culture solution in the holes and add 20 μL MTT solution in each hole and culture at 37 for 4 h. Then discard the solution in the hole, add 100 μL DMSO solution in each hole, shake thoroughly and measure the absorbance (A) immediately in the enzyme-linked immunosorbent assay. The wavelength is measured to be 570 nm.
# [2] = system: high fat and high sugar model ICR mice; test: Losing weight, depressing blood fat and regulating blood sugar balance in high fat and high sugar ICR mice; type: in vivo; design: Serum insulin concentration INS: unit not given here; conditions: n = 10, x ± s; for Celiac total fat / Epididymal fat / MDA (serum oxidative damage indicator) / Mesenteric fat / Perirenal fat / SOD (serum oxidative damage indicator) / Serum insulin concentration INS / Subcutaneous fat / FFA / HDL-C / LDL-C / TC / TG: 50 mg/kg intragastric for 30 days; for Body weight 1 week after / Body weight 2 weeks after / Body weight 3 weeks after / Body weight before administration: high fat and high sugar model; for Body weight 1 week after / Body weight 2 weeks after / Body weight 3 weeks after: 50 mg/kg intragastric daily; for Body weight before administration: baseline before 50 mg/kg intragastric; for FFA / HDL-C / LDL-C / TC / TG: serum
# From the text: 2. Activity Determination of Losing Weight, Depressing Blood Fat and Regulating Blood Sugar Balance of ICR Mice
# The experiment refers to the methods of Raquel Ferrer-Lorente et al (European Journal of Pharmacology, 2005, 513: 243-248), which are slightly modified.
# Take 40 ICR mice (male, weight 13-15 g) and randomly divide them into two large groups according to their weight, a normal diet group (n=10) and a high fat and high sugar model group (n=30); give normal diet to the normal diet group and conduct subcutaneous injection of physiological saline each day; give high-fat and high-sugar diet to the high fat and high sugar model group and conduct subcutaneous injection of insulin (0.5 U/kg) each day. The food is not restricted. Measure the food regularly each day, weigh the weight once a week and feed 7 consecutive weeks.
# 7 weeks after modeling, the normal diet group is unchanged and the high fat and high sugar model group is divided into model control group (n=10), I-1 administration group (n=10) and I-2 administration group (n=10). The feed of each group is unchanged. The administration group is given corresponding compounds with the dose of 50 mg/kg and the blank group is given the equal volume of blank solvent. Conduct intragastric administration on each group for consecutive 30 days. Weigh 12 h after fasting after last administration, take the eyeballs for blood, prepare serum, determine the blood fat (triglyceride TG, free fatty acid FFA, total cholesterol TC, low density lipoprotein cholesterol LDL-C and high density lipoprotein cholesterol HDL-C) content and blood insulin content and detect the oxidative damage indicators in the blood (malondialdehyde MAD and superoxide dismutase SOD). Take off the cervical vertebrae to kill the rats, separate the perirenal, testicular, mesenteric and inguinal (subcutaneous) white adipose tissue, wash clean with cold physiological saline and dry with filter paper, and then weigh.
# KM mice = test: Acute toxicity test of KM mice; type: in vivo
# Method: 3. Acute Toxicity Test of KM Mice
# 3.1 I-1 Acute Toxicity Test of Intragastric Administration (ig) for Mice
# 3.2 I-1 Acute Toxicity Test of Subcutaneous Injection (sc) for Mice
# After sc I-1 2000 mg/kg of mice under the conditions of maximum administration capacity and maximum administration concentration, no mice die and the mice toxic symptoms express as decrease in spontaneous activities and often creeping lying without moving. After about 48 h, mice activities begin to increase. Compared with the control group, the weight gain in subsequent observation period is slower.
# PPARγ2-mRNA = test: RT-PCR of PPARγ2-mRNA expression in 3T3-L1 cells; type: cell-based; conditions: during differentiation of preadipocyte 3T3-L1; GAPDH internal reference; FIG. 4
# Method: 4.1.3 Reverse Transcription
# Polymerase chain reaction (RT-PCR) experiment Extract the total RNA of fully differentiated 3T3-L1 cells to be reversely transcribed into cDNA. The primers are designed as follows:
# • The length of the target product is 567 bp.
# • The length of the target product is 424 bp.
# PCR amplification conditions: initial denaturation at 94 for 5 min, then denaturize at 94 for 30 s, anneal at 57 for 40 s, and extend at 72 for 50 s, a total of 30 cycles. Finally extend at 72 for 10 min. Then conduct electrophoresis analysis with 1.5% agarose gel. GAPDH is used as the internal reference to alleviate the error between different samples. Compare the optical density of objective band with the optical density of amplified GAPDH band for analysis.
# 3T3-L1 cells [3] = test: Oil red staining colorimetric experiment (preadipocyte differentiation); type: cell-based; conditions: 8th day of differentiation, 2nd day of administration; FIG. 2 and FIG. 3
# Method: 4.1.2 Oil Red Staining Colorimetric Experiment
# 4.1.2.1 Culture 3T3-L1 cells in conventional medium and replace with differential medium I (DMEM culture solution containing 15% FBS, 0.4 mmol/L IBMX, 10 mg/L insulin and 1 μmol/L DEX) 2 d after the cells are completely merged (0 d of differentiation) for culture for 2 d. In the second day of differentiation, replace with differential medium II (DMEM culture solution containing 15% FBS and 10 mg/L insulin) to culture cells. In the 6th day of differentiation and later, replace with corresponding DMEM culture solution containing series I compounds. The control group is the complete culture solution without drugs.
# 4.1.2.2. Oil Red O Staining
# In the 8th day of differentiation, discard the culture solution in the holes, wash with PBS for twice and add the solution containing 10% methanal to fix cells for 2 h. Wash with PBS for twice and stain with 0.5% oil red for 2 h. Wash with PBS for three times, dry at 37, add isopropanol, extract for 10 min and measure the absorbance value of the extract liquor at 492 nm.
# High Fat Diet Rats = test: Losing weight and depressing blood fat in high-fat diet SD rats; type: in vivo; conditions: intragastric once a day for a month, compounds 25 mg/kg, sibutramine 1.0 mg/kg, mean ± SD, n = 10
# Method: 1. Activity Determination of Losing Weight and Depressing Blood Fat of SD Rats
# The experiment refers to the methods in Experimental Methodology of Pharmacology compiled by Xu Shuyun et al, People's Medical Publishing House 2002: 1189-1201, which is slightly modified.
# SD rates (weight 80 g-100 g, male, clean grade) are randomly divided into the following groups according to the weight:
# Blank control group (normal diet group); model control group (high-fat diet group); sibutramine, 1.0 mg/kg; Group I-1, 25 mg/kg; Group I-2, 25 mg/kg; Group I-3, 25 mg/kg; Group II-1, 25 mg/kg; Group II-2, 25 mg/kg; Group II-3, 25 mg/kg.
# Except the blank control group, the other groups are fed with high-fat diet for two months. In the third month, all groups are required for intragastric administration and the blank control group and model control group are given appropriate volume of excipients once a day for a consecutive month. After the administration, exsanguinate and kill the rats, take femoral arterial blood and separate the plasma, and then measure the parameters according to the unified operating procedures in the kit instructions. Remove the fat around abdominal cavity and reproductive organs, weigh its wet weight and determine the body weight.
# [4] = cited from earlier work
structure (smiles),measurement,setting,value
"CCCCCCCC/C=C\CCCCCCCC(=O)Oc1ccc2c(=O)c(-c3ccc(OC)cc3)coc2c1 [I-1, 4′-methoxy-7-O-oleoyl daizeol]","Proliferation of preadipocyte 3T3-L1 (MTT, OD value)",3T3-L1 cells [1],significant inhibition action
same,Celiac total fat,[2],0.595 ± 0.172 g
same,Epididymal fat,[2],0.382 ± 0.230 g
same,MDA (serum oxidative damage indicator),[2],0.810 ± 0.162 nmol/L
same,Mesenteric fat,[2],0.135 ± 0.047 g
same,Perirenal fat,[2],0.078 ± 0.050 g
same,SOD (serum oxidative damage indicator),[2],382.3 ± 200.9 U/ml
same,Serum insulin concentration INS,[2],20.26 ± 2.69
same,Subcutaneous fat,[2],0.136 ± 0.065 g
same,Body weight 1 week after,[2],39.1 ± 5.2 g
same,Body weight 2 weeks after,[2],33.8 ± 3.7 g
same,Body weight 3 weeks after,[2],31.5 ± 2.0 g
same,Body weight before administration,[2],41.8 ± 5.7 g
same,FFA,[2],0.55 ± 0.14 mmol/L
same,HDL-C,[2],1.70 ± 0.53 mmol/L
same,LDL-C,[2],1.068 ± 0.636 mmol/L
same,TC,[2],2.79 ± 0.39 mmol/L
same,TG,[2],0.97 ± 0.21 mmol/L
same,LD50,KM mice; intragastric administration (ig),2163.8 mg/kg
same,Mortality,"KM mice; subcutaneous injection (sc) 2000 mg/kg, maximum administration capacity and concentration",no mice die
same,PPARγ2-mRNA expression quantity,PPARγ2-mRNA,increased
same,Adipose differentiation of 3T3-L1 cells (oil red stained lipid droplets),3T3-L1 cells [3],lipid droplets are significantly decreased
same,Fat index,High Fat Diet Rats,5.0 ± 1.6 g/100 g
same,Free fatty acid FFA,High Fat Diet Rats,606.7 ± 144.7 µmol/L
same,Total cholesterol TC,High Fat Diet Rats,1.31 ± 0.27 mmol/L
same,Triglyceride TG,High Fat Diet Rats,0.91 ± 0.22 mmol/L
same,Weight after administration,High Fat Diet Rats,309 ± 36 g
"CCCCC/C=C\C/C=C\CCCCCCCC(=O)Oc1ccc2c(=O)c(-c3ccc(OC)cc3)coc2c1 [I-2, 4′-methoxy-7-O-linoleoyl daizeol]",Celiac total fat,[2],0.329 ± 0.403 g
same,Epididymal fat,[2],0.212 ± 0.239 g
same,MDA (serum oxidative damage indicator),[2],1.288 ± 0.145 nmol/L
same,Mesenteric fat,[2],0.058 ± 0.101 g
same,Perirenal fat,[2],0.059 ± 0.057 g
same,SOD (serum oxidative damage indicator),[2],424.1 ± 192.8 U/ml
same,Serum insulin concentration INS,[2],22.32 ± 6.39
same,Subcutaneous fat,[2],0.099 ± 0.071 g
same,Body weight 1 week after,[2],39.1 ± 4.1 g
same,Body weight 2 weeks after,[2],32.9 ± 5.7 g
same,Body weight 3 weeks after,[2],29.5 ± 2.3 g
same,Body weight before administration,[2],42.0 ± 4.4 g
same,FFA,[2],0.43 ± 0.04 mmol/L
same,HDL-C,[2],1.56 ± 0.29 mmol/L
same,LDL-C,[2],0.880 ± 0.655 mmol/L
same,TC,[2],3.18 ± 0.46 mmol/L
same,TG,[2],0.71 ± 0.22 mmol/L
same,PPARγ2-mRNA expression quantity,PPARγ2-mRNA,increased
same,Fat index,High Fat Diet Rats,4.3 ± 1.5 g/100 g
same,Free fatty acid FFA,High Fat Diet Rats,603.8 ± 163.5 µmol/L
same,Total cholesterol TC,High Fat Diet Rats,1.28 ± 0.26 mmol/L
same,Triglyceride TG,High Fat Diet Rats,0.99 ± 0.21 mmol/L
same,Weight after administration,High Fat Diet Rats,307 ± 32 g
"CC(C)CC(N(C)C)C1(c2ccc(Cl)cc2)CCC1 (centres unmarked) [Sibutramine, reference compound]",Fat index,High Fat Diet Rats,4.3 ± 1.7 g/100 g
same,Free fatty acid FFA,High Fat Diet Rats,609.6 ± 138.3 µmol/L
same,Total cholesterol TC,High Fat Diet Rats,1.32 ± 0.29 mmol/L
same,Triglyceride TG,High Fat Diet Rats,0.97 ± 0.31 mmol/L
same,Weight after administration,High Fat Diet Rats,301 ± 41 g
"CCCCCCCCCCCCCCCCCC(=O)Oc1ccc2c(=O)c(-c3ccc(OC)cc3)coc2c1 [I-3, 4′-methoxy-7-O-stearoyl daizeol]",PPARγ2-mRNA expression quantity,PPARγ2-mRNA,significantly decreased
same,Fat index,High Fat Diet Rats,5.4 ± 1.2 g/100 g
same,Free fatty acid FFA,High Fat Diet Rats,730.2 ± 186.0 µmol/L
same,Total cholesterol TC,High Fat Diet Rats,1.57 ± 0.30 mmol/L
same,Triglyceride TG,High Fat Diet Rats,1.19 ± 0.30 mmol/L
same,Weight after administration,High Fat Diet Rats,320 ± 34 g
"CCCCC/C=C\C/C=C\CCCCCCCC(=O)Oc1ccc(-c2coc3cc(OC)ccc3c2=O)cc1 [II-2, 7-methoxy-4′-O-linoleoyl daizeol]",Fat index,High Fat Diet Rats,5.1 ± 1.3 g/100 g
same,Free fatty acid FFA,High Fat Diet Rats,658.8 ± 201.2 µmol/L
same,Total cholesterol TC,High Fat Diet Rats,1.67 ± 0.23 mmol/L
same,Triglyceride TG,High Fat Diet Rats,1.03 ± 0.21 mmol/L
same,Weight after administration,High Fat Diet Rats,318 ± 28 g
"CCCCCCCCCCCCCCCC(=O)Oc1ccc2c(=O)c(-c3ccc(OC)cc3)coc2c1 [I-4, 4′-methoxy-7-O-palmityl daizeol]",PPARγ2-mRNA expression quantity,PPARγ2-mRNA,significantly decreased
"CCCCCCCC/C=C\CCCCCCCC(=O)Oc1ccc(-c2coc3cc(OC)ccc3c2=O)cc1 [II-1, 7-methoxy-4′-O-oleoyl daizeol]",Fat index,High Fat Diet Rats,5.6 ± 1.6 g/100 g
same,Free fatty acid FFA,High Fat Diet Rats,696.3 ± 205.4 µmol/L
same,Total cholesterol TC,High Fat Diet Rats,1.65 ± 0.25 mmol/L
same,Triglyceride TG,High Fat Diet Rats,1.01 ± 0.24 mmol/L
same,Weight after administration,High Fat Diet Rats,328 ± 32 g
"CCCCCCCCCCCCCCCCCC(=O)Oc1ccc(-c2coc3cc(OC)ccc3c2=O)cc1 [II-3, 7-methoxy-4′-O-stearoyl daizeol]",Fat index,High Fat Diet Rats,6.0 ± 2.1 g/100 g
same,Free fatty acid FFA,High Fat Diet Rats,738.1 ± 196.0 µmol/L
same,Total cholesterol TC,High Fat Diet Rats,1.71 ± 0.34 mmol/L
same,Triglyceride TG,High Fat Diet Rats,1.35 ± 0.35 mmol/L
same,Weight after administration,High Fat Diet Rats,352 ± 47 g
"CCCCCCCC/C=C\CCCCCCCC(=O)Oc1ccc2c(c1)CC[C@@H]1[C@@H]2CC[C@]2(C)C(=O)CC[C@@H]12 [OE, Oleoyl-estrone]",Half-life,[4]; intravenous injection,4.17 min
same,Fraction absorbed in estrone water-soluble ester,[4]; oral administration,12%
same,Fraction absorbed in free estrone form,[4]; oral administration,17%
